{"source": "patent US9861606B2", "about": "“Therapeutic for treating inflammatory lung disorders” (University College Cardiff Consultants Limited, priority 2012, dated 2018)", "test_system": "Dunkin-Hartley guinea pigs", "assay": "Inflammatory cell infiltration in BALF of LPS-treated guinea pig model of COPD", "format": "in vivo", "details": "nebulised 3 micromolar, 30 min before LPS", "experimental": "FIG. 15. The calcilytic NPS89636 reduces inflammatory cell infiltration detected in the bronchioalveolar lavage fluid (BALF) from guinea pigs with LPS-induced COPD. Male Dunkin-Hartley guinea pigs (500-550 g) were exposed to 30 micrograms/ml of nebulized lipopolysaccharide (LPS) in saline for 1 hour on alternate days for nine exposures. Animals received nebulised 3 micromolar NPS89636 (or 0.3% DMSO vehicle) for 9 days starting after exposure 5 for 30 min, 30 min before LPS exposure every other day. Animals were killed 24 hours after the ninth exposure (1.5 mL of Euthatal IP) and BALF was collected and cells were counted the same day as described in FIG. 14. Data are presented as mean±S.E.M. Significant differences between vehicle and calcilytic are indicated, p<0.05, n=6. […] For the total cell counts 100 microliters of the concentrated BALF from OVA-sensitised mice or 100 microliters of the diluted BALF from guinea pigs were applied to the Cytospin 3 Shandon cell smearing system (using glass slides from Thermo Scientific (BS7011/2; 0.8-1 mm, 76×26 mm) and filter paper from Thermo Scientific (5991022; Shandon filter cards) at 1000 rt/min for 7 minutes. The slides then were immersed into 1.5% […] stain in methanol for 6 min, then briefly washed in water twice. The slides were allowed to dry overnight, and the cells were counted using 100× oil immersion objective."}
{"smiles": "CCc1ccc(CC(C)(C)NCC(O)COc2cc(-c3ccc(C(=O)O)cc3)ccc2C#N)c(F)c1.Cl", "note": "(stereo in doubt) [NPS89636, (S)-4′-cyano-3′-[3-[2-(4-ethyl-2-fluorophenyl)-1,1-dimethylethylamino]-2-hydroxy-propoxy]-biphenyl-4-carboxylic acid hydrochloride]", "values": [{"measurement": "Effect on inflammatory cell infiltration (BALF), LPS-treated guinea pig", "value": "a reduction in the inflammatory cell infiltration, especially of lymphocytes and neutrophils"}]}
